From patent publication US7892833B2, “Using inhibitors of histone deacetylases for the suppression therapy of inherited disease predisposing conditions” (TopoTarget Germany AG, priority 2003, dated 2011)
“Also recorded” adds a separate entry of the source.

Experiments:
C57BL/6J-APC^min mice = experiment: APC^min mouse model, adenoma count after four weeks of treatment; format: in vivo
Experimental: Ten to sixteen weeks old age- and sex-matched heterozygous C57BL/6J-APC^min mice (Jackson Laboratories, Bar Harbor, Me.) were either left untreated or were treated with 2-PPA or Celecoxib. Control animal were injected (i.p.) with PBS. 2-PPA was injected as isotonic aequous solution of the sodium salt (2×400 mg/kg/day) for four weeks, while Celecoxib was fed to the animals ad libidum at 1250 ppm (0, 12%) for four weeks. At necropsy entire intestinal tracts were opened longitudinally and fixed in 10% phosphate buffered formaldehyde for 24 h. Polyp contrast was increased performing a 1 min staining in 0.1% methylene blue prior to determination of polyp numbers and sizes under a dissecting microscope by two independent observers unaware of the treatment that the mice had received.

TNF-α = TNF-α ELISA of PBL supernatants; format: cell-based, human; settings: for TNF-α secretion, dose-response / concentration of maximal inhibition of TNF-α expression: PBLs, FIG. 6; for TNF-α secretion, dose-response: 2 h preincubation, CD3 and CD28 mAbs 24 h; for concentration of maximal inhibition of TNF-α expression: CD3/CD28
Experimental: (§1) Monocyte and macrophage depleted peripheral blood mononuclear cells were obtained from consenting adults via separation using Ficoll-Hypaque. The peripheral blood mononuclear cells (PBMC) fraction was washed and seeded in 9 cm petri dishes. After an incubation of 2 hours at 37° C. to remove most of the monocytes, macrophages, and B-cells, the non-adherent cells were collected and cultured in 175cm^2 flasks for 2 days. Cells were harvested and adjusted to 3 million cells per ml. Aliquots of 500μl were transferred to each well of 24-well flat bottom plates. Peripheral blood lymphocytes (PBL's) were treated with various concentrations of HDAC inhibitors as indicated. After a 2 hour incubation time at 37°C cells were stimulated with phorbol 12-myristate 13-acetate (PMA) / ionomycin (Ion) or activated via T cell receptor (TCR/CD3) complex with 10μg/m1 anti-CD3 mAb (OKT3) and 2.5μg/ml anti-CD28 mAb. After 24 hours at 37° C. the supernatant was removed and frozen for cytokine assays. Cell pellets were lysed and total RNA was isolated using the RNeasy mini kit from Qiagen.
(§2) To perform ELISA's, supernatants of treated and untreated PBL's were collected and IL-2 as well as TNF-α were measured using the Duo Set ELISA Development System (R&D Systems) as described by the manufacturer.

[1] = tested on: Human immortalized keratinocytes (HaCaT cells); experiment: Cytokine mRNA by semiquantitative RT-PCR in LPS-stimulated keratinocytes; format: cell-based; settings: 4 h preincubation (200 nM TSA or 5 mM 2PPA), LPS 24 h; for level of IL-6 mRNA / level of TNF-α mRNA: vs. untreated stimulated control
Experimental: Human immortalized keratinocytes (HaCaT cells) were seeded at a density of 2.5 million cells per ml into 75 cm^2 flasks. […] After 24 hours at 37° C. cells were lysed and total RNA was isolated using the RNeasy mini kit from Qiagen.
(§3) One microgram of total RNA was transcribed to cDNA by standard methods using reverse transcriptase and an oligo-dT primer (Invitrogen). For semiquantitative PCR, 2 μl of cDNA was amplified by PCR using specific primers. Primers for PCR were synthesized by MWG and are as follows: […]

Peripheral blood cells = experiment: Cytokine ELISA and RT-PCR in peripheral blood cells from a patient treated with 2PPA; format: in vivo, human
Experimental: The cells were either left unstimulated or stimulated with CD3 and CD28 antibodies. After 24 hours at 37° C. the supernatant was collected and the secretion of IL-2 and TNF-α was quantified by ELISA (R&D Systems) (FIGS. 10A and B).
Total RNA from unstimulated and CD3/CD28 stimulated cells was isolated using the RNeasy mini kit (Qiagen). One microgram of total RNA was converted to cDNA by standard methods using reverse transcriptase and an oligo-dT primer (Invitrogen). For semiquantitative PCR, 2 μl of cDNA were amplified by PCR using the specific primers as described above (FIG. 10C).

[2] = EP application No. 03014278.0; cited from earlier work
IL-2 = IL-2 ELISA of PBL supernatants; format: cell-based, human; settings: for secretion of IL-2 / concentration of maximal inhibition of IL-2 expression: CD3/CD28; for secretion of IL-2 / IL-2 secretion, dose-response / concentration of maximal inhibition of IL-2 expression: FIG. 6; for IL-2 secretion, dose-response / concentration of maximal inhibition of IL-2 expression: PBLs; for IL-2 secretion, dose-response: 2 h preincubation, CD3 and CD28 mAbs 24 h
Experimental: as §1, §2

[3] = tested on: Peripheral blood lymphocytes (PBL's); experiment: Cytokine mRNA by semiquantitative RT-PCR in PMA/Ion-stimulated PBLs; format: cell-based, human; settings: for IL-6 mRNA / PMA/Ion mediated stimulation of IL-4 mRNA: 2 h preincubation, PMA/Ion 24 h; for modulation of cytokine expression: PMA/Ion, FIGS. 4A and B
Experimental: as §1, §3

[4] = tested on: cell lines with proven mutations of crucial genes; experiment: Cell viability assay (MTT test); format: cell-based; settings: 0.5 to 3 mM, 40 h to 70 h, all the cell lines tested, vs. untreated cells
Experimental: In FIG. 1 cell lines are listed with proven mutations of crucial genes which in an inherited way establish a condition that predisposes a person to develop a disorder. The cells were grown in the respective medium as described in FIG. 1.
The cell lines listed in table 1 were seeded in 96 well plates at a density of 1×10^4 cells/well in normal growth medium. 2-propyl pentanoic acid was added at final concentrations between 0.5 and 3 mM to triplicate samples and the cells were incubated for 40 h to 70 h. Control cells were grown in the absence of 2-propyl pentanoic acid. Ten μl of 10 mg/ml 3-(4,5-dimethylthiazole-2-yl)-2,5 diphenyltetrazolium bromide (MTT) (Sigma, Deisenhofen, Germany) in PBS were added to each well and the cells were incubated for another 3 h. Cells were lysed by the addition of 90 μl of lysis buffer (20% SDS in 50% dimethyl formamide, pH 4.7). After solubilization of the formazan product, the absorption at 590 nm was determined in a microplate reader (Dynatech, Denkendorf, Germany) and the relative amount of viable cells in comparison to cells grown without the addition of 2-propyl pentanoic acid was determined.

[5] = tested on: Acetylated histones H3 and H4 and the marker gene HDAC-2; experiment: Western blot of peripheral blood cells from patients treated with 2PPA (phase I/II); format: in vivo, human; settings: 2PPA intravenously, before, 6 h, 24 h, 48 h
Experimental: Whole cell extracts were prepared by lysis of cells in RIPA buffer including protease inhibitors. Lysates were separated by SDS gel electrophoresis and transferred onto PVDF membranes. Acetylated histones H3 and H4 and the marker gene HDAC-2 were detected by western blot analysis using an anti-acetylated H3 antibody (Upstate, #06-942), an anti-acetylated H4 antibody (clon T25; patent application EP 02.021984.6), and an anti-HDAC-2 antibody (SCBT, SC-7899). As an equal loading control PVDF membranes were stained with Coomassie (FIG. 9).

[6] = tested on: stage III/IV non-small cell lung cancer; settings: monotherapy; Keer et al., 2002; cited from earlier work
PPARδ = settings: cited from earlier work
[7] = tested on: acute promyelocytic leukemia; settings: PML-RAR patient with multiple relapses after retinoic acid; Warrell et al., 1998; cited from earlier work
[8] = 1 mM, other experiments, PMA/ION and CD3/CD28, FIG. 7
[9] = starting at 24 hours of 2PPA treatment

With `Cc1ccc(-c2cc(C(F)(F)F)nn2-c2ccc(S(N)(=O)=O)cc2)cc1` [Celecoxib] the “abnormalities in the gastrointestinal tract” value (C57BL/6J-APC^min mice; APC^min mice after four weeks of treatment, FIG. 2B) was “intensely inflated stomach, small intestine, and colon”.
For `CCCC(CCC)C(=O)O` [2PPA, 2-propyl-pentanoic acid], the TNF-α secretion (TNF-α; [8]) was “significant decrease”, the “TNF-α secretion, dose-response” value (TNF-α) was “dose-dependent inhibition” and the “mRNA transcript of IFN-γ” value [1] was “significantly reduced”. The “level of IL-6 mRNA” value [1] was “significant decrease”, the “level of TNF-α mRNA” value [1] was “significant decrease” and the “IL-2 mRNA transcripts” value (Peripheral blood cells; CD3/CD28 stimulated) was “decrease”. The “TNF-α mRNA transcripts” value (Peripheral blood cells; CD3/CD28 stimulated) was “decrease”, the “IL-2 in the culture supernatant (ELISA)” value (Peripheral blood cells; CD3/CD28 stimulated 24 h) was “modulates the expression” and the “TNF-α in the culture supernatant (ELISA)” value (Peripheral blood cells; CD3/CD28 stimulated 24 h) was “modulates the expression”. For the same compound, the “cytokine mRNA expression of IFN-γ” value (Peripheral blood cells; [9]) was “significantly reduced”, the “cytokine mRNA expression of IL-4” value (Peripheral blood cells; [9]) was “significantly reduced” and the skin permeation [2] was “permeates human skin effectively”. The “secretion of IL-2” value (IL-2; 0.5 mM) was “only moderate effect”, the “secretion of IL-2” value (IL-2; 1 mM) was “only moderate effect” and the IL-2 secretion (IL-2; [8]) was “significant decrease”. The “secretion of IL-2” value (IL-2; 5 mM) was “significantly reduced”, the “IL-2 secretion, dose-response” value (IL-2) was “dose-dependent inhibition” and the “number of colorectal adenomas” value (C57BL/6J-APC^min mice; APC^min mice treated for 4 weeks, FIG. 2 legend) was “reduction in the number of colorectal adenomas”. For the same compound, the “number of adenomas in the small intestine” value (C57BL/6J-APC^min mice; four weeks, 2-PPA sodium salt i.p. 2×400 mg/kg/day, Celecoxib 1250 ppm in feed, FIG. 2A, 400 mg/kg/day) was “reduces adenoma formation; also recorded: clearly reduces the number of adenomas”, the “abnormalities in the gastrointestinal tract” value (C57BL/6J-APC^min mice; mouse, in vivo) was “did not show any abnormalities in the gastrointestinal tract” and the “IL-6 mRNA” value [3] was “decreased IL-6 mRNA back to the level seen in the unstimulated sample”. The “PMA/Ion mediated stimulation of IL-4 mRNA” value [3] was “significantly reduced”, the “inhibition of cell viability” value [4] was 20-80% and the “Histone H3 and H4 acetylation in peripheral blood cells” value [5] was “Histone H3 and H4 hyperacetylation”. The “marker protein HDAC-2 in peripheral blood cells” value [5] was “down-regulation of the marker protein HDAC-2”.
In the case of `O=C(/C=C/C1CCCCC1)NO` [G2M-707], the “TNF-α secretion, dose-response” value (TNF-α) is reported as “dose-dependent inhibition”, the “concentration of maximal inhibition of TNF-α expression” value (TNF-α) is reported as 1 µM and the “IL-2 secretion, dose-response” value (IL-2) is reported as “dose-dependent inhibition”. The “concentration of maximal inhibition of IL-2 expression” value (IL-2) was 1 µM and the “modulation of cytokine expression” value [3] was “can modulate cytokine expression”.
For `O=C(CCC1CCCCC1)NO` [G2M-702], the “TNF-α secretion, dose-response” value (TNF-α) was “dose-dependent inhibition”, the “concentration of maximal inhibition of TNF-α expression” value (TNF-α) was 3 µM and the “IL-2 secretion, dose-response” value (IL-2) was “dose-dependent inhibition”. The “concentration of maximal inhibition of IL-2 expression” value (IL-2) was 3 µM and the “modulation of cytokine expression” value [3] was “can modulate cytokine expression”.
With `O=C(CCC1CCCC1)NO` [G2M-701] the “TNF-α secretion, dose-response” value (TNF-α) was “dose-dependent inhibition”, the “concentration of maximal inhibition of TNF-α expression” value (TNF-α) was 6 µM and the “IL-2 secretion, dose-response” value (IL-2) was “dose-dependent inhibition”. The “concentration of maximal inhibition of IL-2 expression” value (IL-2) was 6 µM and the “modulation of cytokine expression” value [3] was “can modulate cytokine expression”.
For `O=C(CCCCCCC(=O)Nc1ccccc1)NO` [SAHA, suberoylanilide hydroxamic acid], the “modulation of cytokine expression” value [3] was “can modulate cytokine expression”.
In the case of `CCCC(=O)OCOC(=O)C(C)(C)C` [Pivanex, Pivaloyloxymethyl butyrate], the clinical activity [6] is given as “activity in stage III/IV non-small cell lung cancer”.
In the case of `CC(/C=C/C(=O)NO)=C\[C@@H](C)C(=O)c1ccc(N(C)C)cc1` [TSA, Trichostatin A], the “mRNA transcript of IFN-γ” value [1] is reported as “virtually unaffected”, the “level of IL-6 mRNA” value [1] is reported as “significant decrease” and the “level of TNF-α mRNA” value [1] is reported as “significant decrease”. The “IL-6 mRNA” value [3] was “only moderate effects”, the “PMA/Ion mediated stimulation of IL-4 mRNA” value [3] was “significantly reduced” and the “activation of PPARδ” value (PPARδ) was “activates PPARδ”.
In the case of phenylbutyrate, the clinical outcome [7] is listed as “complete remission of the leukemia”.
